Laboratory results taken from ChEMBL document CHEMBL5055630, “Design, synthesis and biological evaluation of indole-based [1,2,4]triazolo[4,3-a] pyridine derivatives as novel microtubule polymerization inhibitors” (Eur J Med Chem, 2021).

What was measured:
MCF7 = assay: Antiproliferative activity against human MCF7 assessed as reduction in cell viability measured after 48 hrs by MTT assay; assay type: functional, cell-based; conditions: MCF7, 48 h
A549 = assay: Antiproliferative activity against human A549 assessed as reduction in cell viability measured after 48 hrs by MTT assay; assay type: functional, cell-based; conditions: A549, 48 h
HeLa [1] = assay: Antiproliferative activity against human HeLa assessed as reduction in cell viability measured after 48 hrs by MTT assay; assay type: functional, cell-based
HCT-116 = assay: Antiproliferative activity against human HCT-116 assessed as reduction in cell viability measured after 48 hrs by MTT assay; assay type: functional, cell-based; conditions: HCT-116, 48 h
[2] = Metabolic stability in human liver microsomes assessed as parent compound remaining after 90 mins; assay type: ADME, Microsome; conditions: read-out: Stability
[3] = Metabolic stability in human liver microsomes assessed as parent compound remaining after 15 mins; assay type: ADME, Microsome; conditions: read-out: Stability
[4] = Metabolic stability in human liver microsomes assessed as parent compound remaining after 30 mins; assay type: ADME, Microsome; conditions: read-out: Stability
[5] = Metabolic stability in human liver microsomes assessed as half life; assay type: ADME, Microsome
HeLa [6] = assay: Induction of apoptosis in human HeLa cells assessed as viable cells at 5 nM incubated for 48 hrs by Annexin V and propidium iodide Staining based assay (reference value: 98.5 %); assay type: functional; conditions: read-out: Activity
HeLa [7] = assay: Induction of apoptosis in human HeLa cells assessed as necrotic cells at 5 nM incubated for 48 hrs by Annexin V and propidium iodide Staining based assay (reference value: 0.4%); assay type: functional
[8] = Metabolic stability in human liver microsomes assessed as parent compound remaining measured immediately after compound addition; assay type: ADME, Microsome; conditions: read-out: Stability
HeLa [9] = assay: Induction of apoptosis in human HeLa cells assessed as late apoptotic cells at 5 nM incubated for 48 hrs by Annexin V and propidium iodide Staining based assay (reference value: 1 %); assay type: functional
[10] = Metabolic stability in human liver microsomes assessed as parent compound remaining after 60 mins; assay type: ADME, Microsome; conditions: read-out: Stability
HeLa [11] = assay: Induction of apoptosis in human HeLa cells assessed as early apoptotic cells at 5 nM incubated for 48 hrs by Annexin V and propidium iodide Staining based assay (reference value: 0.2%); assay type: functional

IC50 (MCF7) [nM] | IC50 (A549) [nM] | IC50 (HeLa [1]) [nM] | IC50 (HCT-116) [nM] | Compound | further results
125 | 176 | 177 | 750 | COc1cc(-c2nnc3c(OC4CCC4)cc(-c4ccc5c(ccn5C)c4)cn23)cc(OC)c1OC | –
239 | 349 | 240 | 291 | CCOc1cc(-c2ccc3ccn(C)c3c2)cn2c(-c3cc(OC)c(OC)c(OC)c3)nnc12 | –
> 10000 | > 10000 | > 10000 | > 10000 | COc1cc(-c2cc(OC)c3nnc(-c4ccc5c(ccn5C)c4)n3c2)cc(OC)c1OC | –
1900 | 516 | 214 | 1290 | COc1cc(-c2nnc3c(OC4COC4)cc(-c4ccc5c(ccn5C)c4)cn23)cc(OC)c1OC | –
382 | 614 | 199 | 483 | COc1cc(-c2nnc3c(OCC(F)(F)F)cc(-c4ccc5c(ccn5C)c4)cn23)cc(OC)c1OC | –
> 10000 | > 10000 | > 10000 | > 10000 | COc1cc(-c2nnc3c(OC4CN(C(C)(C)C)C4)cc(-c4ccc5[nH]ccc5c4)cn23)cc(OC)c1OC | –
334 | 626 | 272 | 1340 | CCOc1cc(-c2ccc3cc[nH]c3c2)cn2c(-c3cc(OC)c(OC)c(OC)c3)nnc12 | –
– | 15 | 8 | 21 | CC(=O)O[C@H]1C(=O)[C@@]2(C)[C@H]([C@H](OC(=O)c3ccccc3)[C@]3(O)C[C@H](OC(=O)[C@H](O)[C@@H](NC(=O)c4ccccc4)c4ccccc4)C(C)=C1C3(C)C)[C@]1(OC(C)=O)CO[C@@H]1C[C@@H]2O [PACLITAXEL] | –
284 | 589 | 166 | 374 | CCOc1cc(-c2ccc3[nH]ccc3c2)cn2c(-c3cc(OC)c(OC)c(OC)c3)nnc12 | –
1120 | 3080 | 820 | 1800 | COc1cc(-c2nnc3c(OC)cc(-c4ccc5c(c4)c(C=O)cn5C)cn23)cc(OC)c1OC | –
378 | 234 | 211 | 675 | CCCN1CC(Oc2cc(-c3ccc4c(ccn4C)c3)cn3c(-c4cc(OC)c(OC)c(OC)c4)nnc23)C1 | –
2470 | 9810 | 2780 | 5370 | COc1cc(-c2nnc3c(OC4COC4)cc(-c4ccc5[nH]ccc5c4)cn23)cc(OC)c1OC | –
> 10000 | > 10000 | > 10000 | > 10000 | COc1cc(-c2cc(OC)c3nnc(-c4ccc5[nH]ccc5c4)n3c2)cc(OC)c1OC | –
118 | 168 | 97 | 135 | COc1cc(-c2nnc3c(OC4CC4)cc(-c4ccc5c(ccn5C)c4)cn23)cc(OC)c1OC | –
80 | 167 | 85 | 108 | COc1cc(-c2nnc3c(OC)cc(-c4ccc5[nH]ccc5c4)cn23)cc(OC)c1OC | –
140 | 334 | 210 | 228 | CCOc1cc(-c2ccc3c(ccn3C)c2)cn2c(-c3cc(OC)c(OC)c(OC)c3)nnc12 | –
303 | 901 | 350 | 386 | CCOc1cc(-c2ccc3c(c2)c2ccccc2n3C)cn2c(-c3cc(OC)c(OC)c(OC)c3)nnc12 | –
267 | 232 | 142 | 694 | COc1cc(-c2nnc3c(OC4CCC4)cc(-c4ccc5[nH]ccc5c4)cn23)cc(OC)c1OC | –
1020 | 1250 | 261 | 939 | COc1cc(-c2nnc3c(OC(C)C)cc(-c4ccc5[nH]ccc5c4)cn23)cc(OC)c1OC | –
295 | 922 | 472 | 2420 | CCOc1cc(-c2ccc3[nH]c4ccccc4c3c2)cn2c(-c3cc(OC)c(OC)c(OC)c3)nnc12 | –
204 | 322 | 503 | 402 | COc1cc(-c2nnc3c(OC(C)C)cc(-c4ccc5c(ccn5C)c4)cn23)cc(OC)c1OC | –
> 10000 | > 10000 | > 10000 | > 10000 | COc1cc(-c2nnc3c(OC)cc(-c4ccc5[nH]cc(C=O)c5c4)cn23)cc(OC)c1OC | –
608 | 585 | 348 | 900 | COc1cc(-c2nnc3c(OCC(F)(F)F)cc(-c4ccc5[nH]ccc5c4)cn23)cc(OC)c1OC | –
5490 | 478 | 3970 | 1540 | C=C(c1cc(OC)c(OC)c(OC)c1)c1ccc2c(c1)c1ccccc1n2C | –
259 | 198 | 119 | 275 | COc1cc(-c2nnc3c(OC4CC4)cc(-c4ccc5[nH]ccc5c4)cn23)cc(OC)c1OC | –

Compound | IC50 (MCF7) [nM] | IC50 (A549) [nM] | IC50 (HeLa [1]) [nM] | IC50 (HCT-116) [nM] | further results
COc1ccc(/C=C\c2cc(OC)c(OC)c(OC)c2)cc1O [COMBRETASTATIN A4] | 10 | 15 | – | – | remaining at 1.5 h [2]: 15.4%; remaining at 0.25 h [3]: 75.6%; remaining at 0.5 h [4]: 54.1%; half-life [5]: 32.5 min; viability at 0.005 µM (HeLa [6]): 6.7%; Activity (HeLa [7]): 2.6%; remaining at 0 min [8]: 100%; Activity (HeLa [9]): 52.2%; remaining at 1 h [10]: 26.1%; Activity (HeLa [11]): 38.6%
COc1cc2c(c(OC)c1OC)-c1ccc(OC)c(=O)cc1[C@@H](NC(C)=O)CC2 [COLCHICINE] | 48 | 111 | 103 | 83 | –
COc1ccc(/C=C/C=C\c2cc(OC)c(OC)c(OC)c2)cc1O | 75 | 118 | 62 | 42.3 | remaining at 1.5 h [2]: 9.2%; remaining at 0.25 h [3]: 47.7%; remaining at 0.5 h [4]: 26.3%; half-life [5]: 26.7 min; remaining at 0 min [8]: 100%; remaining at 1 h [10]: 12.5%
